Source: ChEMBL document CHEMBL1201862, “PubChem BioAssay data set” (2004)
Activity calls are given as the source filed them. Cut-off read from the data, not from the text of the source: actives have a measured IC50 and inactives only a lower limit.

Molecular target: Envelope glycoprotein gp160 (Human immunodeficiency virus 1, UniProt Q6QLK5)
Experiment: cell-free HIV fusion peptide-binding blockers – biochemical, uHTS, fluorescence dequenching, […] (AID 1986)

Envelope glycoprotein gp160, sequence (Q6QLK5 whole entry, the tested form may be a part): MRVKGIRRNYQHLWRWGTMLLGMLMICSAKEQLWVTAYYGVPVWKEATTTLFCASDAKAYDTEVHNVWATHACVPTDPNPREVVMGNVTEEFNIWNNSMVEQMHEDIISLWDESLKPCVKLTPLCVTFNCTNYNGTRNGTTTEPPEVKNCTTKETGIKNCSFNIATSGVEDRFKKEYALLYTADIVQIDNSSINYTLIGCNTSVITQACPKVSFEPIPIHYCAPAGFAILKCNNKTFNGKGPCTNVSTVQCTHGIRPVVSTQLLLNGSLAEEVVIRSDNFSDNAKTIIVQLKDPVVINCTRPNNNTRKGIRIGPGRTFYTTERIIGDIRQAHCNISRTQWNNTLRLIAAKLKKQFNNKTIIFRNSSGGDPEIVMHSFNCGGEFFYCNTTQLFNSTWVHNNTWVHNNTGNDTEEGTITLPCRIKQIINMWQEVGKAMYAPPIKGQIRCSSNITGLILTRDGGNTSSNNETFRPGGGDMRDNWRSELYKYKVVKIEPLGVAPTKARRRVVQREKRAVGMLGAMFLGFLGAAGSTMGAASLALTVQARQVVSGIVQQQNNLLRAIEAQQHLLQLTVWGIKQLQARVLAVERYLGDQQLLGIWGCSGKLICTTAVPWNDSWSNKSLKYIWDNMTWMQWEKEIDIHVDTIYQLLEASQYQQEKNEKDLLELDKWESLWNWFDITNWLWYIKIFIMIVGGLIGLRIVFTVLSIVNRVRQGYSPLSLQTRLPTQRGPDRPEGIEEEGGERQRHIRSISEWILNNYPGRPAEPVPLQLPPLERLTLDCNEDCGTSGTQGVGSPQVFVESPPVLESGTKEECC

Row | Structure (SMILES) | IC50
1 | O=C(O)CN1C(=O)/C(=C\c2cccc(OCc3ccc(Cl)cc3Cl)c2)SC1=S | 13.1 µM (active)
2 | O=C(O)c1ccccc1NS(=O)(=O)c1ccc(NNC(=S)Nc2ccc(OC(F)F)cc2)c([N+](=O)[O-])c1 | 8.21 µM (active)
